Assay results taken from patent US20260085315A1, “POLYNUCLEOTIDE COMPOSITIONS AND METHODS FOR TREATMENT OF CANCER” (APTAH BIO, INC., priority 2023, published 2026).
Several values for one entry are separate records, joined by “and”; a condition that tells them apart may be missing. Equal entries are not always repeated. d = 2'-deoxy (DNA); m = 2'-O-methyl

Legend:
SH-SY5Y cell line [1] = assay: MTT mitochondrial activity / cell viability; type: cell-based, Human; settings: any concentration; 24 and 48 hours
Procedure: FIG. 22A-22B illustrates the evaluation of mitochondrial activity in SH-SY5Y cell line after incubation in ASMO1. MTT assay was performed after 24 hours (FIG. 22A) and 48 hours (FIG. 22B) of incubation.

SH-SY5Y cell line [2] = assay: Distribution of cell cycle phases; type: cell-based, Human; settings: any concentration evaluated
TAU protein = assay: Tau quantification by Western blot in SK-N-SH; type: cell-based; settings: 0.5 μM
Procedure: FIG. 27A-27B illustrates MAPT expression and tau quantification obtained after 24, 48, 96 and 144 hours of incubation with ASMO1 (0.5 μM) in neuroblastoma cell line.
Cells were rinsed once with ice-cold PBS, collected, and pelleted by centrifugation at 2500 g for 5 minutes at 4° C. Each sample was re-suspended and lysed in 50 μl ice-cold radioimmunoprecipitation assay (RIPA) buffer (Thermo Fisher Scientific, USA) containing EDTA-free Halt protease and phosphatase inhibitor cocktail mixture (Thermo Fisher Scientific, USA) for 20 min at 4° C. To increase protein yields, each sample was homogenized using a 29 G×13 mm needle and syringe. Cell lysates were clarified by centrifugation at 17,000 g for 15 minutes at 4° C. Supernatants were collected and total protein concentration was determined using the BCA protein assay kit (Thermo Fisher Scientific, USA) according to the manufacturer's instructions. 15 μg of total protein in cell lysates were denatured in NuPAGE LDS sample buffer (Thermo Fisher Scientific, USA) with NuPAGE sample reducing agent (DTT; Thermo Fisher Scientific, USA) and boiled at 90° C. for 5 minutes. […] Densitometry using Image J (v1.48k; NIH) was performed and all quantification was standardized against vinculin levels.

[3] = test system: glioblastoma cell line U87-MG; assay: Internalization of FAM-conjugated compound by flow cytometry; type: cell-based, Human; settings: 1 μM FAM conjugate
Procedure: The values obtained were: 1 hour (47.45±4.7%), 2 hours (45.45±3.9%), 4 hours (58±4.8%) and 6 hours (63.65±3.2%). Cells were exposed to the fluorochrome-conjugated compound FAM at a concentration of 1 μM, so that the quantification of intracellular fluorescence was performed at 1, 2, 4 and 6 hours using of the flow cytometry technique, through the acquisition of 10,000 gated events. Data of 2 independent experiments performed in two technical replicates.

U87-MG cell line = assay: Distribution of cell cycle phases; type: cell-based, Human; settings: 0.25 μM, 48 hours
Procedure: The methodologies for this Example are the same as shown in Example 4.
Cells were plated and treated with 3 different concentrations (0.25, 0.5, and 1 μM) of APT20TTMG and cell cycle phases were evaluated after 48 hours of incubation. Cell proliferation is regulated by cell cycle progression. Phases: Sub/G1: non-proliferative state (quiescence); G1/G0: cell growth; S: DNA replication; G2/M: DNA segregation and mitosis. Results were expressed as Mean Standard Error of three independent experiments.

Ki67 = Ki67 immunohistochemistry of tumor samples; type: in vivo, athymic nude mice; settings: treated groups vs non-treated control
Procedure: Immunohistochemistry analysis of Ki67 in tumor samples was also performed. Quantification of the Ki67 in the sections was carried out by visual estimation (Ki67+ve) using two approaches: count of Ki-67 positive tumor cells and Ki67 total area. This process was done using ImageJ public domain software. In the case of the Ki67 total area evaluation, the ImageJ threshold function was used and each image was split into its constituent red, blue and green grayscale images. Further, one of these was selected and processed for threshold values. Values were selected so that the relevant areas (Ki67+ve cells, in this case) were highlighted and the % of area occupied by the selected threshold limits measured.
As shown in FIG. 35A-B, graphs present the individual values of protein quantification of tumors from 8 animals. (A) Ki-67 area, (B) Ki-67 positive tumor cells count.

[4] = test system: Human Glioblastoma Cancer (U-87MG) xenograft; assay: Histopathology of tumor samples with scoring; type: in vivo, athymic nude mice; design: key: 1: Few; 2: Moderate; 3: Large; settings: individual animals; G3 APT20TTMG, G2 TMZ
Excerpt: The fixed tissues were processed for routine paraffin embedding followed by sectioning (3-6 micron). The sections were stained with hematoxylin and eosin. The prepared slides were examined under microscope by the study pathologist to record histopathological findings in tumor samples, related to capsule formation, cell type, connective tissue stroma, apoptosis, necrosis, lipid content, nucleus-to-cytoplasmic (N:C) ratio, nuclei mitotic figures, tumor grade, and level of differentiation. Each histopathological finding and tumor volume were assigned a score ranging from 1 to 4 (Table 7). The sum of these scores for each sample was used to infer the tumor aggressiveness.

APT20TTMG: engineered polynucleotide ASMO1, 24 nt, SEQ ID NO: 3 gtccactaacctttcaggccagcg; targeting moieties 5′-GTCCA-3′ and 5′-CG-3′, U1 snRNP recruiting moiety (GTCCACTAACCTTTCAGGCCAGCG; sugars from the 5' end m5 d14 m5, all phosphorothioate, methylation of C and T or U not given here)
cell viability (MTT) (SH-SY5Y cell line [1]): no change in cell viability
cell cycle phases (SH-SY5Y cell line [2]): no change in cell cycle phases
reduction of tau protein quantification (TAU protein; first of 'the two highest concentrations' as printed (parallel to 96 h)): 40±13.3%
reduction of tau protein quantification (TAU protein; second of 'the two highest concentrations' as printed (parallel to 144 h)): 46±14.3%
internalization ([3]; 1 hour): 47.45±4.7%
internalization ([3]; 2 hours): 45.45±3.9%
internalization ([3]; 4 hours): 58±4.8%
internalization ([3]; 6 hours): 63.65±3.2%
cells in G1/G0 phase (U87-MG cell line; p=0.0036): reduction in retention
cells in G2/M phase (U87-MG cell line; p=0.0425): increase in retention
Ki67 (positive tumor cell count and total area) (Ki67): did not detect any statistical differences
Score: Mitotic figures [4]: 1 (4×) and 3
